Laboratory results as given in ChEMBL document CHEMBL4043204, “meso-Dihydroguaiaretic acid derivatives with antibacterial and antimycobacterial activity” (Bioorg Med Chem, 2017).
In brackets after ≈: the same amount, converted by molar mass. Activity calls are given as the source filed them. The rule behind the calls is not given here.

Columns and labels:
[1] = tested on: Acinetobacter baumannii; assay: Antibacterial activity against carbapenem-resistant Acinetobacter baumannii (12-666) assessed as inhibition of microbial growth up to 50 ug/ml incubated for 24 hrs by microdilution assay; format: functional
[2] = tested on: Escherichia coli; assay: Antibacterial activity against extended-spectrum beta-lactamase-positive Escherichia coli (14-2081) assessed as inhibition of microbial growth up to 50 ug/ml incubated for 24 hrs by microdilution assay; format: functional
[3] = tested on: Escherichia coli; assay: Antibacterial activity against oxacillin-resistant Escherichia coli OXA-48 assessed as inhibition of microbial growth up to 50 ug/ml incubated for 24 hrs by microdilution assay; format: functional
[4] = tested on: Pseudomonas aeruginosa; assay: Antibacterial activity against carbapenem-resistant Pseudomonas aeruginosa (13-1391) assessed as inhibition of microbial growth up to 50 ug/ml incubated for 48 hrs by microdilution assay; format: functional
[5] = tested on: Klebsiella pneumoniae; assay: Antibacterial activity against NDM-1 positive Klebsiella pneumoniae (14-3335) assessed as inhibition of microbial growth up to 50 ug/ml incubated for 24 hrs by microdilution assay; format: functional
[6] = tested on: Klebsiella pneumoniae; assay: Antibacterial activity against extended-spectrum beta-lactamase-positive Klebsiella pneumoniae (14-2081) assessed as inhibition of microbial growth up to 50 ug/ml incubated for 24 hrs by microdilution assay; format: functional
[7] = tested on: Providencia rettgeri; assay: Antibacterial activity against NDM-1 positive Providencia rettgeri assessed as inhibition of microbial growth up to 50 ug/ml incubated for 24 hrs by microdilution assay; format: functional
[8] = tested on: Stenotrophomonas maltophilia; assay: Antibacterial activity against trimethoprim-sulfamethoxazole-resistant Stenotrophomonas maltophilia assessed as inhibition of microbial growth up to 50 ug/ml incubated for 24 hrs by microdilution assay; format: functional
[9] = tested on: Mycobacterium tuberculosis; assay: Antimycobacterial activity against Mycobacterium tuberculosis H37Rv ATCC 27294 assessed as inhibition of mycobacterial growth incubated for 2 weeks by MABA method; format: functional; details: for MIC: Mycobacterium tuberculosis, H37Rv ATCC 27294, 336 h
[10] = tested on: Mycobacterium tuberculosis; assay: Antimycobacterial activity against Mycobacterium tuberculosis H37Rv ATCC 27294 assessed as inhibition of mycobacterial growth up to 50 ug/ml incubated for 2 weeks by MABA method; format: functional
[11] = tested on: Enterococcus faecium; assay: Antibacterial activity against vancomycin-resistant Enterococcus faecium (10-984) assessed as inhibition of microbial growth incubated for 24 hrs by microdilution assay; format: functional
[12] = tested on: Staphylococcus aureus; assay: Antibacterial activity against methicillin-resistant Staphylococcus aureus (14-2095) assessed as inhibition of microbial growth incubated for 24 hrs by microdilution assay; format: functional
[13] = tested on: Vero; assay: Cytotoxicity against African green monkey Vero cells assessed as reduction in cell viability incubated for 24 hrs by trypan blue staining based assay; details: Chlorocebus sabaeus
[14] = tested on: Staphylococcus epidermidis; assay: Antibacterial activity against linezolid-resistant Staphylococcus epidermidis (14-583) assessed as inhibition of microbial growth incubated for 24 hrs by microdilution assay; format: functional
[15] = tested on: Staphylococcus haemolyticus; assay: Antibacterial activity against linezolid-resistant Staphylococcus haemolyticus 2975 assessed as inhibition of microbial growth incubated for 24 hrs by microdilution assay; format: functional; details: Staphylococcus haemolyticus, 2975, 24 h
[16] = Selectivity index, ratio of IC50 for cytotoxicity against African green monkey Vero cells to MIC for antibacterial activity against methicillin-resistant Staphylococcus aureus (14-2095)
[17] = Selectivity index, ratio of IC50 for cytotoxicity against African green monkey Vero cells to MIC for Mycobacterium tuberculosis H37Rv ATCC 27294; format: toxicity, cell-based; details: read-out: Selectivity Index

Row | SMILES | Activity [1] | Activity [2] | Activity [3] | Activity [4] | Activity [5] | Activity [6] | Activity [7] | Activity [8] | -logMIC [9] | growth inhibition (GI) [10] | MIC [11] [µg/mL] | MIC [12] [µg/mL] | IC50 [13] [µg/mL] | MIC [14] [µg/mL] | MIC [15] [µg/mL] | Selectivity Index [16] | MIC [9] [µg/mL] | selectivity ratio [17]
1 | COc1cc(C[C@@H](C)[C@@H](C)Cc2ccc(OC(=O)c3ccc(Br)cc3)c(OC)c2)ccc1OC(=O)c1ccc(Br)cc1 | inactive | inactive | inactive | inactive | inactive | inactive | inactive | inactive | 4.09 | inactive | – | – | – | – | – | – | – | –
2 | COc1cc(C[C@@H](C)[C@@H](C)Cc2ccc(OCCN3CCCCC3)c(OC)c2)ccc1OCCN1CCCCC1 | inactive | inactive | inactive | inactive | inactive | inactive | inactive | inactive | – | – | 50 | 50 | 73.2 (≈ 132 µM) | > 50 | 50 | 1.46 | 3.12 (≈ 5.65 µM) | 23.4
3 | COc1cc(C[C@@H](C)[C@@H](C)Cc2ccc(OCCN3CCOCC3)c(OC)c2)ccc1OCCN1CCOCC1 | inactive | inactive | inactive | inactive | inactive | inactive | inactive | inactive | – | – | > 50 | 50 | 71.6 (≈ 129 µM) | > 50 | > 50 | 1.43 | 25 (≈ 44.9 µM) | 2.87
4 | CCCC(=O)Oc1ccc(C[C@H](C)[C@H](C)Cc2ccc(O)c(OC)c2)cc1OC (racemic) | inactive | inactive | inactive | inactive | inactive | inactive | inactive | inactive | 3.94 | inactive | – | – | – | – | – | – | – | –
5 | CCCCCCCCCCCCCCCC(=O)Oc1ccc(C[C@@H](C)[C@@H](C)Cc2ccc(OC(=O)CCCCCCCCCCCCCCC)c(OC)c2)cc1OC | inactive | inactive | inactive | inactive | inactive | inactive | inactive | inactive | 4.02 | inactive | – | – | – | – | – | – | – | –
6 | CCCCCCCCCCCCCCCCCC(=O)Oc1ccc(C[C@@H](C)[C@@H](C)Cc2ccc(OC(=O)CCCCCCCCCCCCCCCCC)c(OC)c2)cc1OC | inactive | inactive | inactive | inactive | inactive | inactive | inactive | inactive | 3.85 | inactive | – | – | – | – | – | – | – | –
7 | COc1cc(C[C@@H](C)[C@@H](C)Cc2ccc(OC(=O)c3ccccc3[N+](=O)[O-])c(OC)c2)ccc1OC(=O)c1ccccc1[N+](=O)[O-] | inactive | inactive | inactive | inactive | inactive | inactive | inactive | inactive | 4.03 | inactive | – | – | – | – | – | – | – | –
8 | COc1cc(C[C@@H](C)[C@@H](C)Cc2ccc(OC(C)=O)c(OC)c2)ccc1O (racemic) | inactive | inactive | inactive | inactive | inactive | inactive | inactive | inactive | 4.07 | – | > 50 | 25 | 112 (≈ 300 µM) | > 50 | > 50 | 4.46 | 50 (≈ 134 µM) | 2.23
9 | CCCCCCCC/C=C\CCCCCCCC(=O)Oc1ccc(C[C@@H](C)[C@@H](C)Cc2ccc(OC(=O)CCCCCCC/C=C\CCCCCCCC)c(OC)c2)cc1OC | inactive | inactive | inactive | inactive | inactive | inactive | inactive | inactive | 4.88 | inactive | – | – | – | – | – | – | – | –
